Data as given in patent US20260224549A1, “COMPOUNDS, COMPOSITIONS, AND METHODS FOR TREATING, AMELIORATING, AND/OR PREVENTING PAIN” (priority 2023, published 2026).

How the values were obtained:
[1] = not given; remark: listed apart in the source
rat = test system: rat
Description: The chosen dose can be higher, as long as within the pharmacological range.

[2] = Hygroscopicity - Dynamic Vapor Sorption (DVS); format: physicochemical
Experimental: Hygroscopicity—Dynamic Vapor Sorption (DVS)
DVS is a gravimetric technique that measures how quickly and how much of a solvent (water) is sorbed by a sample. The relative humidity or vapor concentration surrounding the sample is varied while the change in mass of the sample is measured. […] The mass values at each relative humidity step are used to generate an isotherm. Isotherms are divided in two components: sorption for increasing humidity steps and desorption for decreasing humidity steps. A plot of kinetic data is also used to show the change in mass and humidity as a function of time.
The samples were analyzed using a TA Q5000 automated dynamic vapor sorption analyzer. The samples were dried at 60° C. over 180 minutes and then cooled to 25° C. with a dry nitrogen purge. The samples were then subjected to 0 to 90% RH, back to 10% RH at 25° C. in 10% RH steps.

clinical = conditions: for AUC(0-t) / Cmax / Tmax: human
Experimental: The reference treatment i fasted condition for all comparisons.
Eight subjects in Cohort A3 participated in a 2-period treatment design in which they were assessed for the single-dose of drug substance in a Fasted condition and in a Fed condition. Subjects were to receive the same treatment (i.e., either drug substance or placebo) in both Period 1 and Period 2, and thus subjects would receive either two single doses of drug substance or two single doses of placebo during their participation in the study. Fasting state assessments occurred in Period 1 and Fed State assessments in Period 2. It was planned that an approximate 7-day washout would be needed between the Fast and Fed dosing periods. Note that PD assessments were not performed for the food effect Cohort A3.
Note that PD assessments were not performed for the Food Effect cohort.
For Part A Cohort A3, assessment of the food-effect was performed for the following PK parameters: • AUC0-last • Cmax • AUC0-inf

[3] = 120 mg DS (Fed), single oral dose, plasma, N = 6
[4] = 120 mg DS, Fed versus Fasted, n = 6

CN(C)C[C@H]1CN(CCc2ccsc2)CC[C@]1(O)c1cccc(C(N)=O)c1 [Compound I, 3-(3S, 4R)-3-((dimethylamino)methyl)-4-hydroxy-1-(2-(thiophen-3-yl)ethyl)piperidin-4-yl-benzamide]
opiate-associated effects (single dose 20-400 mg): no system opiate-associated effects noted | tolerability (single dose ranging from 20 mg up to 400 mg, healthy subjects): well-tolerated | abuse liability ([1]; Conditioned Place Preference, Drug Self-Administration, Drug Discrimination): no abuse liability | Withdrawal symptoms ([1]; preclinical model): only minimal Withdrawal symptoms | NOAEL HED for 50 kg subject (rat): 485 mg | maximum moisture uptake [2]: approximately 10.5 wt % | hygroscopicity ([2]; in words, listed as Compound I free base): hygroscopic | GLSM ratio (90% CI) fed/fasted, AUC0-last (clinical; 120 mg): 0.801 (0.688, 0.933) | GLSM ratio (90% CI) fed/fasted, Cmax (clinical; 120 mg): 0.450 (0.238, 0.852) | reduction of AUC0-last by food (clinical; 120 mg): approximately 20% | reduction of peak concentrations by food (clinical; 120 mg): approximately 55% | Tlast (time of last measurable concentration), Median (clinical; [3]): 48.0 h | Tlast, Max (clinical; [3]): 48.0 h | Tlast, Min (clinical; [3]): 36.0 h | Tmax, Max (clinical; [3]): 6.02 h | Tmax, Min (clinical; [3]): 1.00 h | AUC0-last, Fed versus Fasted Ratio of GLSMs (clinical; [4]): 0.801 | Cmax, Fed versus Fasted Ratio of GLSMs (clinical; [4]): 0.450 | mean concentrations measurable through (clinical; 120 mg fed): 48 h | AUC(0-t) (clinical; plasma, oral, 120 mg, AUC0-last (zero to 24 hours postdose), GLSM, 120 mg DS (Fasted), n = 6): 202 ng·h/mL | AUC(0-t) (clinical; plasma, oral, 120 mg, AUC0-last (zero to 24 hours postdose), GLSM, 120 mg DS (Fed), n = 6): 162 ng·h/mL | Cmax (clinical; plasma, oral, 120 mg, GLSM (geometric least squares mean), 120 mg DS (Fasted), n = 6): 81.9 ng/mL | Cmax (clinical; plasma, oral, 120 mg, GLSM (geometric least squares mean), 120 mg DS (Fed), n = 6): 36.9 ng/mL | Tmax (clinical; plasma, oral, 120 mg, individual Tmax range, with food): 1 to 6 h | Tmax (clinical; plasma, oral, 120 mg, individual Tmax range, without food): 2 to 3 h | Tmax (clinical; plasma, oral, 120 mg, median Tmax, with food): 2.6 h | Tmax (clinical; plasma, oral, 120 mg, median Tmax, without food): 2.3 h | AUC(0-t) (clinical; plasma, po, 120 mg, AUC0-last (zero to 24 hours postdose), Mean, 120 mg DS (Fed), single oral dose, N = 6): 166 ng·h/mL | AUC(0-t) (clinical; plasma, po, 120 mg, AUC0-t (zero to the last quantifiable concentration), Mean, 120 mg DS (Fed), single oral dose, N = 6): 204 ng·h/mL | Cmax (clinical; plasma, po, 120 mg, Mean, 120 mg DS (Fed), single oral dose, N = 6): 45.2 ng/mL | Tmax (clinical; plasma, po, 120 mg, Tmax, Median, 120 mg DS (Fed), single oral dose, N = 6): 2.58 h
